Data reported in patent publication US7687546B2, “Quaternary ammonium compound, process for producing the same, therapeutic agent for cerebrovascular disorder, and therapeutic agent for heart disease” (Activus Pharma Co., Ltd., priority 2004, dated 2010).
Read-outs that look alike come from different tables or passages of the source.

Columns and labels:
guinea pigs = conditions: guinea pig, in vivo
[1] = tested on: middle cerebral artery occlusion and reperfusion model; assay: Cerebral infarction model: middle cerebral artery occlusion and reperfusion (infarct area, neurological symptoms, motor function); format: in vivo, rats (Crj: Wistar strain); design: Improvement of neurological symptoms* (total score): scale not given here; conditions: rats, average of 10 animals; for Improvement of neurological symptoms* (total score) / Improvement of motor function (time stayed on rotor rod: seconds): single i.v. dose 3 mg/kg; for Improvement of neurological symptoms* (total score): 24 hours after occlusion, total score per Table 4, smaller = greater effect; for Improvement of motor function (time stayed on rotor rod: seconds): rotor rod 14 rotations per minute, maximum 1 minute; for Cerebral infarction reduction rate (%): single intravenous dose 3 mg/kg immediately before reperfusion, vs physiological saline group, bigger = greater effect
Method: In this example, a cerebral infarction model was prepared using rats in which reperfusion injury was induced by ischemia and then reperfusion of the middle cerebral artery using the obturator method. The efficacy of compounds of the present invention following single-dose intravenous administration at dose of 3 mg/kg was evaluated in terms of infarct area, neurological symptoms and motor function.
In addition, Edaravone (trade name, Mitsubishi Pharma Corporation) was used as a reference compound. The compounds of the present invention were stored in a refrigerator under protection from light, while Edaravone (trade name) was stored at room temperature under protection from light.
Compounds of present invention: 2 mL of physiological saline was added directly to tube containing 3 mg aliquots of a compound of the present invention to dissolve and prepare solutions having a concentration of 3 mg/2 mL. These samples were prepared at the time of use.
Edaravone: Since Edaravone is an injectable solution having a concentration of 30 mg/20 mL, the required amounts were divided up and used.
Rats: Crj: Wistar strain, males, age 7 weeks (Charles River Laboratories Japan, Inc.)
The test compounds were administered in a single dose into the tail vein using a 1 mL syringe and 27 G injection needle immediately before the reperfusion.
The rats were anesthetized by intraperitoneal administration of sodium pentobarbital at dose of 40 mg/kg (Nembutal (trade name), Dainippon Pharmaceutical Co., Ltd.), and a middle cerebral artery occlusion and reperfusion model was prepared in accordance with the method of Koizumi et al. (Non-Patent Document 2). Namely, the animals were warmed to 37° C. and held in the dorsal position while breathing spontaneously. A midline cervical incision was made, and then the right external carotid artery and right internal carotid artery were separated without damaging the vagus nerve. The right common carotid artery and right external carotid artery were ligated, and a suture was attached to the origin of the internal carotid artery in preparation for ligation and maintenance of occlusion following insertion of an obturator into the internal carotid artery. Moreover, a small incision was made in the right common carotid artery, an obturator provided with an approximately 17 mm silicon-coated suture was inserted into the internal carotid artery, and the internal carotid artery was ligated. Two hours after ligation, the obturator was removed under unanesthesia to reperfuse. Furthermore, flexion of the contralateral forelimb was confirmed 30 minutes after occlusion of the middle cerebral artery.
The following neurological symptoms were evaluated 24 hours after occlusion of the middle cerebral artery according to the evaluation method of Petullo et al. (Non-Patent Document 3). Neurological symptoms consisted of flexion of the forelimbs, torso twisting, resistance when pushing on the back of the right or left shoulder (Lateral push), circling, return of the hindlimb to the floor when lifted from the floor (Hindlimb placement), behavior when the head is faced downward on an angle (Inverted angle board) and a locomotor activity test.
Flexion of the forelimbs: flexion of the forelimbs was observed when the animals were lifted up by the tail.
Torso twisting: Torso twisting was observed when the animals were lifted up by the tail.
Lateral push: Resistance was observed when pushing on the back of the right or left shoulder.
Hindlimb placement: The animals were observed as to whether or not the hindlimb immediately returns to the floor after being lifted from the floor when placed on a horizontal floor.
locomotor activity: locomotor activity was observed when the animals were placed in a polycarbonate cage.
The aforementioned tests were scored based on the criteria described in the following documents, followed by calculation of total scores (see Table 4 “Neurological Symptom Evaluation Criteria and Scores”). […]

[2] = tested on: model of myocardial ischemia reperfusion injury; assay: Model of myocardial ischemia-reperfusion injury in dogs; format: in vivo; conditions: 3 mg/kg into the femoral vein 10 minutes before 20 minutes coronary occlusion, then reperfusion
Method: In order to confirm the efficacy of compounds of the present invention on myocardial infarction and arrhythmia caused by myocardial infarction, a pharmacological study was conducted using a model of myocardial ischemia reperfusion injury in dogs for the compounds used in Example 1.
Dogs having body weights of approximately 10 kg were anesthetized with pentobarbital (trade name) (30 mg/ml/kg) followed by shaving the surgical site after starting artificial respiration. The femoral vein and femoral artery were separated followed by cannulation. The femoral vein was used as the administration route for the test substances, while the femoral artery was used to measure blood pressure.
Next, after opening the left chest, making an incision in the pericardium and exposing the left ventricle, the left coronary artery was separated. A silk suture was passed through the coronary artery to occlude, followed by the attachment of an electromagnetic flow meter probe for measuring blood flow.
In addition, a pair of ultrasound crystal probes was fixed in position to measure changes in ventricular wall length as a indicator of myocardial contractile force, and indwelling needle was installed for measuring left intraventricular pressure. Compounds of the present invention were administered into the femoral vein at 3 mg/kg (15% physiological saline solution) followed 10 minutes later by occluding the coronary artery for 20 minutes, and subsequently reperfusing the coronary artery. Myocardial contraction following ischemia-reperfusion was compared for each group based on a value of 100 for myocardial contraction prior to ischemic reperfusion. In addition, comparisons were also made with a solvent control group administered only physiological saline.

[3] = tested on: ouabain-induced arrhythmia model; assay: Ouabain-induced arrhythmia model in guinea pigs; format: in vivo, guinea pigs (Hartley strain); conditions: dose 3 mg/kg i.v. immediately before ouabain infusion 3 μg/0.1 ml/min
Excerpt: After guinea pigs (Hartley strain, age 6 weeks) were anesthetized with urethane, induction electrodes were attached to the hind limbs and fore limbs, and standard 2-lead electrocardiograms were monitored with an animal electrocardiogram analysis system (ECG-01, Japan Energy). After confirming that the waveforms of the electrocardiogram and heart rate were within the normal range, an incision was made in the epidermis of the neck followed by inserting a breathing tube into the trachea and cannulating a polyethylene tube into the left external jugular vein and left common carotid artery.
Immediately after administering a compound of the present invention dissolved in a physiological saline solution into the right external jugular vein, ouabain was continuously infused at 3 μg/0.1 ml/min through the cannulated polyethylene tube into the left external jugular vein using a syringe pump (Atom Syringe Pump 1235 (trade name), Atom Medical Corporation).
In addition, the polyethylene tube cannulated in the left common carotid artery was connected to a pressure transducer (P23XL, Gould Electronics), and fed to a pressure processor signal conditioner (TA-11, Gould Electronics) to record blood pressure and heart rate on a thermal plate recorder.
The results were assessed by comparing the dose (μg/kg) of ouabain administered until the appearance of arrhythmia and occurrence of cardiac arrest (arrhythmia is not induced even if a large dose of ouabain is administered if antiarrhythmic effects are high). Furthermore, a solvent dose group (administered only physiological saline in an amount equal to that of the test drug groups), and a positive control group administered a typical antiarrhythmic disopyramide phosphate (physiological saline solution), were also provided.

[4] = tested on: model of myocardial ischemia-reperfusion injury; assay: Model of myocardial ischemia-reperfusion injury in rats; format: in vivo; conditions: 3 mg/kg i.v. 5 minutes before 5 minutes coronary ligation, 8 rats per group; for Incidence of Ventricular Fibrillation (%) / Incidence of Ventricular Tachycardia (%): monitored 5 minutes after reperfusion; for Mortality Rate (%): then reperfusion

Compound	Occurrence of Arrhythmia (guinea pigs; 3 mg/kg)	Occurrence of cardiac arrest (guinea pigs; 3 mg/kg)	Occurrence of Arrhythmia (guinea pigs; 10 mg/kg)	Occurrence of cardiac arrest (guinea pigs; 10 mg/kg)	Improvement of neurological symptoms* (total score) [1]	Improvement of motor function (time stayed on rotor rod: seconds) [1]	Cerebral infarction reduction rate (%) [1]	Myocardial Contraction (%) (Based on a value of 100% for prior to ischemia-reperfusion) [2]	Ouabain (μg/kg) administered until Cardiac arrest [3]	Ouabain (μg/kg) administered until appearance of Arrhythmia [3]	Incidence of Ventricular Fibrillation (%) [4]	Incidence of Ventricular Tachycardia (%) [4]	Mortality Rate (%) [4]
CC[N+](CC)(CC)CCOc1ccc(S(=O)(=O)[O-])c(O)c1 [Compound 71]	No	No	No	No	6.30	48.8 s	46.3%	72%	239 µg/kg	171 µg/kg	12.5%	62.5%	0%
C[N+](C)(C)CCOc1ccc(O)c(S(=O)(=O)[O-])c1 [Compound 66]	No	No	No	No	6.35	49.6 s	47.9%	80%	237 µg/kg	168 µg/kg	12.5%	62.5%	12.5%
C[N+](C)(C)CCOc1ccc(S(=O)(=O)[O-])cc1 [Compound 60]	No	No	No	No	6.65	44.2 s	39.0%	88%	243 µg/kg	170 µg/kg	25.0%	62.5%	0%
C[N+](C)(C)CCOc1ccc(O)c(O)c1C(=O)[O-] [Compound 33]	No	No	No	No	5.90	52.1 s	52.6%	82%	239 µg/kg	171 µg/kg	12.5%	50.0%	0%
C[N+](C)(C)CCOc1ccc(O)c(C(=O)[O-])c1 [Compound 9]	No	No	No	No	5.95	51.6 s	51.5%	78%	245 µg/kg	170 µg/kg	25.0%	75.0%	12.5%
C[N+](C)(C)CCOc1cc(O)cc(C(=O)[O-])c1O [Compound 28]	No	No	No	No	5.85	53.1 s	54.7%	76%	267 µg/kg	173 µg/kg	12.5%	62.5%	12.5%
